According to PMC11329504, “Identification of novel small molecule-based strategies of COL7A1 upregulation and readthrough activity for the treatment of recessive dystrophic epidermolysis bullosa” (Scientific Reports, 2024):
Like-named read-outs stand apart in the source and are kept apart here.

Columns and labels:
Type in all cases: cell-based, human
[1] = system: total (truncated + full length) C7 in RDEB_L1 cells; assay: AlphaLISA quantification of total C7 in RDEB_L1 cells; settings: for EC50: Homo sapiens
Description: (§1) The AlphaLISA assay was developed in-house by using the biotin-conjugated rabbit polyclonal antibody anti-C7 (LSBio LS-298147) and conjugating the acceptor beads (PerkinElmer 6772001) to a monoclonal anti-Collagen type VII antibody produced in mouse, clone LH7.2 (Thermo MA5-13,432). Formulation of the mAb clone LH7.2 was exchanged to PBS and concentrated 5 × by using Amicon® Ultra-0.5 centrifugal filters up to 1 mg/ml. The conjugation procedure was carried out according to the protocol provided by PerkinElmer.
(§2) For compound treatment in RDEB patient-derived transformed keratinocytes, 5,000 cells were plated in 20 µL of supplemented KGM media containing 20 ng/mL TGFβ2 (SIGMA GF113) without GA-1000 in 384-well cell culture plates (Greiner 781098). The day after, 5 µL of test compounds prepared 5 × in supplemented KGM without GA-1000 were added over cells and incubated for 48 h at 37 °C and 5% CO2. For compound treatment in HEK293^R578X, 10,000 cells were plated in 20 μL of DMEM (High Glucose, 2 mM L-Glutamine, sodium pyruvate, and FBS 10%) in 384-well cell culture plates (Greiner 781,098,). The day after, 5 μL of test compounds prepared 5 × in DMEM complete medium were added over cells and incubated for 48 h at 37 °C and 5% CO2.
(§3) After the treatment process, 2.5 µL of RIPA buffer 10 x (Abcam ab156034) were added over the […] of cells for 20 min at room temperature to obtain a complete cell lysis. Then, 2 μL of sample (i.e., cell lysate with supernatant) were transferred to the AlphaLISA plate (PerkinElmer 6,059,340) containing […] of antibodies mixture ([…] of acceptor Beads-Ab and […] of biotin-rAb) prepared in AlphaLISA buffer 1 x (PerkinElmer AL00F). The reaction was incubated for 90 min at room temperature. Finally, 10 μL of […] of donor beads (PerkinElmer 6760002,) were added to the reaction under subdued light, mixed gently, and incubated for 3 h at room temperature. AlphaLISA signal was detected with an Envision microplate reader (Perkin Elmer) using the following setting: Filter: AlphaScreen, Excitation time: 180 ms, Integration time: 300 ms.
(§4) Statistical analyses were performed using GraphPad Prism v. 7.04 (La Jolla, California). Results are shown as mean ± SD of experimental replicates. Dose–response curves to assess compound treatment effect were plotted in a four-parameter logistic model. Relative EC50, representing the total drug concentration producing a 50% effect, was calculated in the four-parameter logistic equation. Comparisons of collagen protein and mRNA expression in different experimental conditions were made using ANOVA, followed by a post hoc test. statistical significance was considered with p values < 0.05.

[2] = system: total (truncated + full length) C7 in RDEB_L5 cells; assay: AlphaLISA quantification of total C7 in RDEB_L5 cells; settings: for EC50: Homo sapiens, total C7 AlphaLISA, 48 h, 20 ng/mL TGFß2, relative EC50, mean ± SD, read-out: Increase in C7 levels EC50; for Increase in C7 levels Emax, % vs baseline: 20 ng/mL TGFß2
Description: as §1, §2, §3, §4

[3] = system: RDEB_L1 cells; assay: RNAseq (HTPathwaySeq) transcriptomic profiling, GSEA; settings: 24 h; for modulation of GO terms related to NMD, readthrough, translation and unfolded protein response: 20 ng/mL TGFβ2, compound 7 and 8 at the highest concentrations tested of 100 and 300 µM
Description: The […]®) analysis was conducted at […], Belgium) using samples provided by Almirall. A total of 376 cell lysate samples representing 4 biological replicates of 94 samples were provided to […] in four 96-well plates. On each 96-well plate, two empty wells were allocated to include […] reference samples. Samples from the same biological group were distributed over the different plates to not confound inter-plate variability with biological signal. […] The compounds were evaluated in RDEB_L1 cells in the presence of 20 ng/mL TGFβ2 to mimic RDEB physiology and in normal human keratinocytes with no TGFβ2 treatment. Cells were treated during 24 h. Controls for RDEB_L1 cells not treated with TGFβ2 and RDEB_L1 and NHK cells treated with DMSO in the absence of compounds were also included. The conditions of the assay were identical to those described for the Real-time quantitative RT-PCR (see above). For the […], over 460 M reads were generated for 376 samples of interest, resulting in about 1.22 M reads per sample on average. […] is based on a 3'-end library preparation method, and gene body read coverage is concentrated towards the 3'-end of the genes. For quality control, a selection of lysate samples was checked for gDNA contamination and RNA content using qPCR before library preparation. RNA samples were processed to generate RNA-sequencing libraries using […] procedure based on the QuantSeq (Lexogen) 3'-end library preparation workflow. The quality of a selection of samples was assessed with the 2100 Bioanalyzer instrument (Agilent). Libraries were quantified using qPCR and pooled for single-end sequencing on a NextSeq 500 (Illumina) according to […] standard operating procedure. Raw reads were mapped to the human genome (hg38) and gene expression was quantified based on the Ensembl transcriptome annotation (version 85) using […]. Raw counts were normalized using […]2 prior to differential gene expression analysis. For each cell line, samples were clustered based on log-transformed normalized counts using tSNE. A perplexity parameter of 35 and a maximum number of 1000 iterations were applied. Genes with more than 10 normalized counts in at least 3 samples were used as input. Analysis was run in R (v3.2) with a fixed seed. […] For each contrast, genes ranked by fold change were used as input. PCA was applied on the fold changes of each compound vs their associated vehicle using the 500 genes with the greatest variance. Arrows connect the different incremental dosages used on each compound to observe their differentiation patterns. Pathway enrichment and PCA were performed using R v.3.2. Pathway enrichment was analyzed with cluster profile package. The procedure followed for the cell treatments of RDEB-L1 and NHEK, was the same as that used in the RT-qPCR study. Cell lysis and sample preparation were conducted according to […] instructions: Plates of treated cells were centrifuged for 5 min at 600 g at 4 °C, and the medium was carefully removed to avoid disturbing the cells. Then, cells were washed in PBS, centrifuged and the PBS was removed again. […] After checking that cells were lysed, the samples were transferred to 96-well PCR plates, and then sealed and stored at -80 °C to be sent to […].

[4] = RDEB_L1 cells, total C7 AlphaLISA, 48 h, 20 ng/mL TGFß2, mean ± SD, read-out: Increase in C7 levels EC50(rel)

NC(=O)Cn1ccc2ccc(-c3cnc(N)c(C(=O)NC4C5CC6CC4CC(O)(C6)C5)n3)cc21 (stereo not drawn) [Compound 1]
EC50 ([1]; RDEB_L1 cells, no gentamicin (Fig. 4b), read-out: EC50 of compound 1, total C7 AlphaLISA): 4.56 µM
EC50 [1, 4]: 3 ± 1.8 µM
decrease in the EC50 in the presence of increasing concentrations of gentamicin ([1]; RDEB_L1 cells): threefold
Increase in C7 levels Emax, % vs baseline ([1]; RDEB_L1 cells, at 12 µM, 20 ng/mL TGFß2): 3279 ± 1236 at 12 % vs baseline
effect of the combination with gentamicin on total C7 levels ([1]; RDEB_L1 cells, both at concentrations in the range of their EC50, 48 h, 20 ng/mL TGFβ): synergistic effect
EC50 [2]: 4.7 ± 0.8 µM
Increase in C7 levels Emax, % vs baseline ([2]; at 12.5 µM): 1401 ± 384 at 12.5 % vs baseline
TGFβ signaling pathway signature (GSEA) ([3]; 20 ng/mL TGFβ2, at 10 µM): Downregulation of TGFβ signaling
modulation of GO terms related to NMD, readthrough, translation and unfolded protein response [3]: Neither compound 1 nor chuangxinmycin nor 3-methyl-chuangxinmycin showed any impact on these pathways

C#Cc1cc(-c2ccncc2)c(-c2cccc(F)c2)nc1N [Compound 7]
EC50 [1, 4]: 17 ± 6.6 µM
EC50 ([1]; Table 5 SAR, C7 AlphaLISA, 20 ng/mL TGFß2 (cell line not given; compound 7 values equal RDEB_L1 of Table 1), read-out: Increase in C7 levels EC50 (rel)): 17 ± 6.6 µM
Increase in C7 levels Emax, % vs baseline ([1]; RDEB_L1 cells, at 50 µM, 20 ng/mL TGFß2): 412 ± 80 at 50 % vs baseline
Increase in C7 levels Emax, % vs baseline ([1]; Table 5 SAR, at 50 μM, 20 ng/mL TGFß2): 412 ± 80 at 50 % vs baseline
EC50 [2]: 23 ± 11 µM
Increase in C7 levels Emax, % vs baseline ([2]; at 50 µM): 293 ± 58 at 50 % vs baseline
TGFβ signaling pathway signature (GSEA) ([3]; 20 ng/mL TGFβ2): did not show any effect
modulation of GO terms related to NMD, readthrough, translation and unfolded protein response [3]: modulating genes specifically related to cytoplasmic translation and the ribosome

CNC(C)C1CCC(N)C(OC2C(N)CC(N)C(OC3OCC(C)(O)C(NC)C3O)C2O)O1 (stereo not drawn) [Gentamicin, reference compound]
EC50 [1, 4]: 1700 ± 480 µM
EC50 ([1]; in RDEB_L1 and RDEB_L5 cells, read-out: EC50 (range over two cell lines)): 420 to 1700 µM
concentrations at which activity was detectable in the AlphaLISA assay ([1]; RDEB_L1 and L5 cells): > 100 µM
Increase in C7 levels Emax, % vs baseline ([1]; RDEB_L1 cells, 20 ng/mL TGFß2): 199 ± 112 at 4100 % vs baseline
EC50 [2]: 420 ± 390 µM
Increase in C7 levels Emax, % vs baseline ([2]; at 1600 µM): 41 ± 3.3 at 1600 % vs baseline
modulation of GO terms related to NMD, readthrough, translation and unfolded protein response [3]: modulating genes related with the response to unfolded and topologically incorrect proteins
